Experimental findings from paper PMC8945778, “Functional Characterization of Serotonin N-Acetyltransferase in Archaeon Thermoplasma volcanium” (Antioxidants, 2022) are described below.

The assay has as its target T1, TvSNAT (Thermoplasma volcanium, UniProt Q97CT7).
T1 construct: gene TVG0012647
Put plainly: HPLC of N-acetylserotonin, dose-dependent inhibition of serotonin acetylation. The format is biochemical. The following applies: serotonin 0.5 mM; acetyl-CoA 0.5 mM; pH 8.8; 45 °C; suggested alternative substrate; 50% point read by authors, no fit; read-out: SNAT activity decreased to 50%.

T1 sequence (Q97CT7 entry or part of it): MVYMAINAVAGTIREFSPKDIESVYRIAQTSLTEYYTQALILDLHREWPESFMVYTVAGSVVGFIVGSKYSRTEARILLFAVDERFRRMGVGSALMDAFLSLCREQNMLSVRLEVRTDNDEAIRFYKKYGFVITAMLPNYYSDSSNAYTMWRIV

On to `NC[C@H](O)c1ccc(O)cc1` [octopamine], for which the IC50 is about 500 µM.

Regarding `NCCCCNCCCN` [spermidine], the IC50 is about 100 µM.
